Results on 14 compounds are retold here after patent publication US20260216294A1, “BETA 2-ADRENERGIC RECEPTOR AGONISTS FOR TREATMENT OR PREVENTION OF MUSCLE WASTING” (ATROGI AB, priority 2023, published 2026).

Assay [1] concerns L6-myotubes. Description: Glucose uptake in differentiated L6-myotubes (Biological Example 2). The assay is classed as cell-based. As to conditions: read-out: Biological example 2 (GU). In a few lines: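 Differentiated L6 myotubes were serum-starved overnight in 0.5% fatty-acid-free BSA and then stimulated with compound or isoprenaline at 1×10^−5 M final. After 1 h 40 min cells were washed and re-dosed in glucose-free medium. Twenty minutes later, uptake of 50 nM ^3H-2-deoxyglucose over 10 min was measured by scintillation counting of NaOH lysates.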

For assay [2], the system named is L6-myotubes. The assay can be described thus: Measurement of intracellular cAMP levels in differentiated L6-myotubes (Biological Example 3). The assay is classed as cell-based. As to conditions: 0.25 h. In a few lines:
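Serum-starved differentiated L6 myotubes stimulated 15 min with test compound at 1×10^−5 M final (isoprenaline as reference) in HBSS with 1% BSA, 5 mM HEPES, 1 mM IBMX, pH 7.4. Cells EtOH-extracted, lysed, and intracellular cAMP measured by AlphaScreen.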
On the technique in general: Cyclic AMP is a second messenger, typically raised through Gs and lowered through Gi signalling.

Setting [3] is: glucose uptake in differentiated L6-myotubes, compound at 10 μM, activity relative to isoproterenol at 10 μM.
[4] abbreviates: intracellular cAMP in differentiated L6-myotubes, compound at 10 μM, activity relative to isoproterenol at 10 μM.
[5] abbreviates: glucose uptake, compound at 10 μM relative to isoproterenol at 10 μM.
[6] abbreviates: intracellular cAMP, compound at 10 μM relative to isoproterenol at 10 μM.

Regarding `CCC[C@@H]1CCCC[C@H]([C@H](O)c2cncc(F)c2)N1` [Compound 219, (R)-[(2R,7R)-7-propyl-2-azepanyl](5-fluoro-3-pyridyl)methanol], the Emax at 10 µM in the assay on L6-myotubes [1] (setting [3]) and with L6-myotubes [2] (setting [4]) was under 25% each time.

For the compound `CO[C@H]1CC[C@H](C[C@H]2CC[C@H]([C@@H](O)c3cncc(F)c3)N2)CC1` [Compound 340, (S)-[(2R,5R)-5-{[(1r,4R)-4-methoxycyclohexyl]methyl}-2-pyrrolidinyl](5-fluoro-3-pyridyl)methanol], the Emax at 10 µM in the assay on L6-myotubes [1] (setting [3]) is 25 to 50%; in the assay on L6-myotubes [2] (setting [4]), under 25%.

`CCC[C@@H]1CCC[C@@H]([C@@H](O)c2cccc(Cl)c2)N1` [Compound 114]: the Emax at 10 µM in the assay on L6-myotubes [1] (setting [5]) is 25 to 50%; in the assay with L6-myotubes [2] (setting [6]), under 25%.

Regarding `O[C@@H](CNCC[C@H]1CC[C@H](OCc2ccccc2)CC1)c1cncc(F)c1` [Compound 292, (R)-1-(5-fluoro-3-pyridyl)-2-{2-[(1r,4R)-4-(benzyloxy)cyclohexyl]ethylamino}-1-ethanol], the Emax at 10 µM in the assay on L6-myotubes [1] (setting [3]) and in the assay on L6-myotubes [2] (setting [4]) was under 25% in each case.

Take `O[C@@H](c1cccc(F)c1)C12CCC(COc3ccc(Cl)cc3)(CC1)N2` [Compound 440]: the Emax at 10 µM in the assay on L6-myotubes [1] (setting [3]) was over 75%; in the assay with L6-myotubes [2] (setting [4]), under 25%.

For the compound `CC1(C)C[C@@H]([C@H](O)c2cccc(Cl)c2)N1` [Compound 232], the Emax at 10 µM in the assay on L6-myotubes [1] (setting [3]) was 25 to 50%; with L6-myotubes [2] (setting [4]), under 25%.

In the case of `O[C@H](c1cncc(F)c1)C12CCC(CCc3ccc(OC(F)(F)F)cc3)(CC1)N2` [Compound 545, (R)-(5-fluoro-3-pyridyl){4-[2-(p-trifluoromethoxyphenyl)ethyl]-7-azabicyclo[[2.2.1]]hept-1-yl}methanol], the Emax at 10 µM in the assay with L6-myotubes [1] (setting [3]) and in the assay with L6-myotubes [2] (setting [4]) was under 25% in each case.

In the case of `O[C@H](c1cccc(F)c1)C12CCC(COCc3ccc(F)cc3)(CC1)N2` [Compound 439, (R)-(m-fluorophenyl)(4-{[(p-fluorophenyl)methoxy]methyl}-7-azabicyclo[[2.2.1]]hept-1-yl)methanol], the Emax at 10 µM in the assay on L6-myotubes [1] (setting [3]) is over 75%; in the assay with L6-myotubes [2] (setting [4]) it was 25 to 50%.

On to `CS(=O)(=O)N(Cc1ccccc1)c1ccc(CC23CCC([C@@H](O)c4cccc(F)c4)(CC2)N3)cc1` [Compound 472, (S)-[4-({p-[(benzyl)-N-mesylamino]phenyl}methyl)-7-azabicyclo[[2.2.1]]hept-1-yl](m-fluorophenyl)methanol], for which the Emax at 10 µM with L6-myotubes [1] (setting [3]) was 25 to 50%; in the assay with L6-myotubes [2] (setting [4]), under 25%.

On to `O[C@@H](CNCCC[C@H]1CC[C@H](O)CC1)c1cncc(F)c1` [Compound 305, (R)-1-(5-fluoro-3-pyridyl)-2-{3-[(1r,4S)-4-hydroxycyclohexyl]propylamino}-1-ethanol], for which the Emax at 10 µM in the assay on L6-myotubes [1] (setting [3]) is 25 to 50%; in the assay on L6-myotubes [2] (setting [4]), under 25%.

Consider `CC12CC(C1)[C@H]([C@H](O)c1cccc(N)c1F)N2` [Compound 241, (R)-{(R)-1-methyl-2-azabicyclo[2.1.1]hex-3-yl}(3-amino-2-fluorophenyl)methanol], for which the Emax at 10 µM is over 75% in the assay on L6-myotubes [1] (setting [3]) and under 25% in the assay on L6-myotubes [2] (setting [4]).

In the case of `CC1(C)CCC[C@H]([C@@H](O)c2cccc(Cl)c2)N1` [Compound 164], the Emax at 10 µM is 50 to 75% in the assay with L6-myotubes [1] (setting [5]) and under 25% in the assay on L6-myotubes [2] (setting [6]).

Take `CCC[C@@H]1CCC[C@H]([C@H](O)c2cccc(F)c2)N1` [Compound 59, (R)-[(2R,6R)-6-propyl-2-piperidyl](m-fluorophenyl)methanol]: the Emax at 10 µM in the assay with L6-myotubes [1] (setting [5]) was 25 to 50%; with L6-myotubes [2] (setting [6]) it was under 25%.

On to `CCS(=O)(=O)N[C@H]1CC[C@H](CC(C)(C)NC[C@H](O)c2cncc(F)c2)CC1` [Compound 525, (R)-2-{1,1-dimethyl-2-[(1r,4R)-4-(ethylsulfonylamino)cyclohexyl]ethylamino}-1-(5-fluoro-3-pyridyl)-1-ethanol], for which the figures for the Emax at 10 µM in the assay on L6-myotubes [1] (setting [3]) and in the assay on L6-myotubes [2] (setting [4]) were 50 to 75% and under 25%, respectively.
